Test results from ChEMBL document CHEMBL1201862, “PubChem BioAssay data set” (2004).
Activity calls are given as the source filed them.

How the values were obtained:
Type in all cases: functional
[1] = target: Fibroblast growth factor receptor 1 (Homo sapiens, UniProt P11362)
[2] = target: Serine/threonine-protein kinase PAK 4 (Homo sapiens, UniProt O96013);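 also: value obtained within a kinome profiling panel in which PAK4 was one of the panel members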
[3] = target: Macrophage colony-stimulating factor 1 receptor (Homo sapiens, UniProt P07333);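 also: value comes from the Navigating the Kinome screening panel, CSF1R member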
[4] = target: Cyclin-dependent kinase 7 (Homo sapiens, UniProt P50613);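 also: value comes from a kinome-wide kinase profiling panel in which CDK7 is one member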
[5] = target: Mitogen-activated protein kinase 8 (Homo sapiens, UniProt P45983);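 also: value comes from one member of a kinome-wide kinase profiling panel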
[6] = target: 5'-AMP-activated protein kinase catalytic subunit alpha-1 (Homo sapiens, UniProt Q13131)
[7] = target: Mitogen-activated protein kinase kinase kinase kinase 2 (Homo sapiens, UniProt Q12851);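 also: measured as one member of a kinome-wide kinase panel, with MAP4K2 as the panel entry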
[8] = target: T1, Serine/threonine-protein kinase D3 (Homo sapiens, UniProt O94806);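 also: determined within a kinase panel screen, with PRKCN as the panel member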
T1 sequence (O94806 whole entry): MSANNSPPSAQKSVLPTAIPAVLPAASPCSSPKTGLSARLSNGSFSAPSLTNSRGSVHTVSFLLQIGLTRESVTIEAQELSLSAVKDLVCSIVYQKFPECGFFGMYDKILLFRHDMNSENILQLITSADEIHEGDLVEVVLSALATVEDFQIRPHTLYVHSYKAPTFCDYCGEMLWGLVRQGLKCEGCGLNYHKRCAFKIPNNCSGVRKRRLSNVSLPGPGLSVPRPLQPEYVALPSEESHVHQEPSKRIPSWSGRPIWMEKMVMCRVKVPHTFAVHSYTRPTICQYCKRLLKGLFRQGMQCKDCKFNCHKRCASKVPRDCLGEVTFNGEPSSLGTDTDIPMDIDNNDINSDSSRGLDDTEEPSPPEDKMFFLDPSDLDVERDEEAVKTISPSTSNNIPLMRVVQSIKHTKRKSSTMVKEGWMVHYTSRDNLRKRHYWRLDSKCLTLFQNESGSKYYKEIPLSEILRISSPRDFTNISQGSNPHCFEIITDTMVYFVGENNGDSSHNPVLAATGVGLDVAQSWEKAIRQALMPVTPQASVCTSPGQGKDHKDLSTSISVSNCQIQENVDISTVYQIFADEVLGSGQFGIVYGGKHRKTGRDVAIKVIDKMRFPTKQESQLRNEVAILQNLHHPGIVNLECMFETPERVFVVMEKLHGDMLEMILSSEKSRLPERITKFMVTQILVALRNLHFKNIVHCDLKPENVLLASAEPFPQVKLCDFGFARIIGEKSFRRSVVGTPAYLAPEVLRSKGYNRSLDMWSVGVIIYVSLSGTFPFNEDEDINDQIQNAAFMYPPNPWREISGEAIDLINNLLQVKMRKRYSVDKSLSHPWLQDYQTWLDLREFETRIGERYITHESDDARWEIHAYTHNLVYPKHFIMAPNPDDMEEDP

[9] = target: Insulin-like growth factor 1 receptor (Homo sapiens, UniProt P08069); assay: Navigating the Kinome. Panel member name: IGF1R
Sequence of Insulin-like growth factor 1 receptor (P08069 31-736 limits assumed): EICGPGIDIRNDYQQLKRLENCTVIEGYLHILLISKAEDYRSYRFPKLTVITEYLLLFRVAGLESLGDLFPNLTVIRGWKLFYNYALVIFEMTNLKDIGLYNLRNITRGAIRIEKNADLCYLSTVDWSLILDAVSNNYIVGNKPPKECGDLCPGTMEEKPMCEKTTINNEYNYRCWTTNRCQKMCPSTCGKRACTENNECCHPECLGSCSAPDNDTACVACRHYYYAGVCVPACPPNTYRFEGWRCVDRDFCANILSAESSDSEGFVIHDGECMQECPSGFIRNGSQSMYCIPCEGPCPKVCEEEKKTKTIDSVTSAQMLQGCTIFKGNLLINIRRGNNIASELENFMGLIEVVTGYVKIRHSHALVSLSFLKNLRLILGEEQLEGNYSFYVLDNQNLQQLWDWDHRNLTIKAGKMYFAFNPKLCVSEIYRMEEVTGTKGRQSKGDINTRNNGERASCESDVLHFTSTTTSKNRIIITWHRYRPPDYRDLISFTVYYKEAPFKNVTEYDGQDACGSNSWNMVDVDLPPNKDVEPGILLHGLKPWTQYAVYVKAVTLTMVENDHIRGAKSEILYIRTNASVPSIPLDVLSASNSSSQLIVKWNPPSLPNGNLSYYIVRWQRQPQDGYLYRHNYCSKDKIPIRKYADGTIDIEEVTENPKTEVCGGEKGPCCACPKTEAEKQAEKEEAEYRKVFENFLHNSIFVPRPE
Sequence of Insulin-like growth factor 1 receptor (P08069 741-1367 limits assumed): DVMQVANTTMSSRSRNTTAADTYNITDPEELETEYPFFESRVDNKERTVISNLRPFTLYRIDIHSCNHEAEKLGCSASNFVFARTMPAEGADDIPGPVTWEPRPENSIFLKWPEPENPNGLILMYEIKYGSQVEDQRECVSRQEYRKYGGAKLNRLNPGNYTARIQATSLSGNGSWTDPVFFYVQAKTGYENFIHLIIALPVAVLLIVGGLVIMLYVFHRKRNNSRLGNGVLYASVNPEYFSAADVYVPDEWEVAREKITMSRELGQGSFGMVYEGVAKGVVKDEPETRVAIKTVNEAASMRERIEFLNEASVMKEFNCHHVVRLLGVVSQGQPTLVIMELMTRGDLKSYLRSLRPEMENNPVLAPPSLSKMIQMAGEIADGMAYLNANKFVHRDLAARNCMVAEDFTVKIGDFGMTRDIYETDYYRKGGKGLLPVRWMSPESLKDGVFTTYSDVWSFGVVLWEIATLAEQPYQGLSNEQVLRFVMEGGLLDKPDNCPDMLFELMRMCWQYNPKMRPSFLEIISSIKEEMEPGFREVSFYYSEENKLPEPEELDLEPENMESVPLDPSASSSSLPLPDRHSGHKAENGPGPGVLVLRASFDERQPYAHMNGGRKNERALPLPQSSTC

[10] = target: Vascular endothelial growth factor receptor 1 (Homo sapiens, UniProt P17948);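 also: measured within a kinome-wide profiling panel, FLT1 as the panel member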
Sequence of Vascular endothelial growth factor receptor 1 (P17948 whole entry): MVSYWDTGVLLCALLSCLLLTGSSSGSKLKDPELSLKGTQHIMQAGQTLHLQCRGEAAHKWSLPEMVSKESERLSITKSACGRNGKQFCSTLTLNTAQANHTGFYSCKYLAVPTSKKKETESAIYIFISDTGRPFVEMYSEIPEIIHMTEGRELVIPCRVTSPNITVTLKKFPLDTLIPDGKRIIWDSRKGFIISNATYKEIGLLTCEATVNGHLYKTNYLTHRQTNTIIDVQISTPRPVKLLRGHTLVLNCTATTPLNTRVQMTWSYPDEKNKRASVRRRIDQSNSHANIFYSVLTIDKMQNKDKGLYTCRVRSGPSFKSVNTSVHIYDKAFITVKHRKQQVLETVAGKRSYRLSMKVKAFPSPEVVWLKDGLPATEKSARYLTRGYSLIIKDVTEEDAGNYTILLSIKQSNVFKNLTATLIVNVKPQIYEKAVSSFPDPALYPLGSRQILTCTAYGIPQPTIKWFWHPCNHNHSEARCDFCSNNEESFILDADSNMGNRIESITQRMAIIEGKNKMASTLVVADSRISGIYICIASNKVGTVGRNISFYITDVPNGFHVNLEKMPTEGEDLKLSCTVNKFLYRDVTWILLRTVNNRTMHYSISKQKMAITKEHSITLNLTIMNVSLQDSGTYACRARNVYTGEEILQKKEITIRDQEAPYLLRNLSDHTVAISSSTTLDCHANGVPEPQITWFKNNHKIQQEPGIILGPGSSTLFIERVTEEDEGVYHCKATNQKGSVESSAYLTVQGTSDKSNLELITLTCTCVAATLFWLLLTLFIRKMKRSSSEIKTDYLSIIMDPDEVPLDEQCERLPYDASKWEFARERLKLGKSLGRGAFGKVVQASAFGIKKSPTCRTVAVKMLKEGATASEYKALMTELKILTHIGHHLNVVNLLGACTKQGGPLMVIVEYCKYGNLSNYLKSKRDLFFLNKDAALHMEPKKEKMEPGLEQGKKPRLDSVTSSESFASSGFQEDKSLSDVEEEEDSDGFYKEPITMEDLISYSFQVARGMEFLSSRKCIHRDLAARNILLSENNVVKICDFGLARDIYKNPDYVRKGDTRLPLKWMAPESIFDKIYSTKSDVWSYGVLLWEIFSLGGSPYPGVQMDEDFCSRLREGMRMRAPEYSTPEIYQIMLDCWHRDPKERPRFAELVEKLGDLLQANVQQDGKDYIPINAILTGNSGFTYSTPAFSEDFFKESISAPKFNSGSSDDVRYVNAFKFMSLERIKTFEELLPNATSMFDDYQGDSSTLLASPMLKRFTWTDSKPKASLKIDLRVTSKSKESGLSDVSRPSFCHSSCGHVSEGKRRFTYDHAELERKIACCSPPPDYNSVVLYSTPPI

[11] = target: Death-associated protein kinase 3 (Homo sapiens, UniProt O43293);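 also: measured as one member of a kinome-wide profiling panel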
[12] = target: Tyrosine-protein kinase Fyn (Homo sapiens, UniProt P06241)
[13] = target: Cyclin-dependent kinase 8 (Homo sapiens, UniProt P49336); assay: Navigating the Kinome. Panel member name: CDK8
Sequence of Cyclin-dependent kinase 8 (P49336 whole entry): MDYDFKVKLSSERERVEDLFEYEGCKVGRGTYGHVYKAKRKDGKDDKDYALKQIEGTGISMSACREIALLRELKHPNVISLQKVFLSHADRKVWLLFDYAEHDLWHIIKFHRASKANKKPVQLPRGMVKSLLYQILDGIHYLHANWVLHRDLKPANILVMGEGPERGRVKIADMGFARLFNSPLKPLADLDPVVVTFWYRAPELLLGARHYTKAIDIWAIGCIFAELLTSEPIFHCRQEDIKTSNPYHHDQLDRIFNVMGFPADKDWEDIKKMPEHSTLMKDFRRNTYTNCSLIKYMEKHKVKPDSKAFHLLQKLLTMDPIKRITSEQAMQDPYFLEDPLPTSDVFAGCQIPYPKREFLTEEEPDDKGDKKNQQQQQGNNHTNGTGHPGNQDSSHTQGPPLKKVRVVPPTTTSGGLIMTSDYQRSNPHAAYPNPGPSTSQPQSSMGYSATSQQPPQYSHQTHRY

[14] = target: Tyrosine-protein kinase Lck (Homo sapiens, UniProt P06239);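 also: lck was assayed as one member of a kinase panel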
Sequence of Tyrosine-protein kinase Lck (P06239 whole entry): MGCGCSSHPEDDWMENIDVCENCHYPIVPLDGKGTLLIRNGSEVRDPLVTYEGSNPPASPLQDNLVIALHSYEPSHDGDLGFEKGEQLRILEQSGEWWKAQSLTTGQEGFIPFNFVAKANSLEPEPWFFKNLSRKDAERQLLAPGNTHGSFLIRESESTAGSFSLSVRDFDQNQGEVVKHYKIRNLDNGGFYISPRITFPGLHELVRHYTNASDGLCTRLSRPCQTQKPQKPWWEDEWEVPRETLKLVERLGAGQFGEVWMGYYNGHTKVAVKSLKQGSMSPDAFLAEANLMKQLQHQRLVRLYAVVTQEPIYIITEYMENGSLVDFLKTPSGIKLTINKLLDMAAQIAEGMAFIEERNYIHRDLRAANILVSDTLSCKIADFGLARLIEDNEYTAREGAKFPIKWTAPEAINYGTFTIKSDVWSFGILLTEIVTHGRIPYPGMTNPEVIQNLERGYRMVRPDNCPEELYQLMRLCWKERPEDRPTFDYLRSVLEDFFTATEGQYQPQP

[15] = target: Serine/threonine-protein kinase Nek2 (Homo sapiens, UniProt P51955)
Aurora kinase B = Aurora kinase B (Homo sapiens, UniProt Q96GD4)
[16] = target: Receptor-type tyrosine-protein kinase FLT3 (Homo sapiens, UniProt P36888);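 also: FLT3 was tested as one member of a kinome-wide kinase panel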
[17] = target: Serine/threonine-protein kinase TAO1 (Homo sapiens, UniProt Q7L7X3)
[18] = target: High affinity nerve growth factor receptor (Homo sapiens, UniProt P04629);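 also: NTRK1 tested as one member of a kinome-wide profiling panel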
[19] = target: Cyclin-dependent kinase 5 (Homo sapiens, UniProt Q00535);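 also: CDK5 measured as one member of a kinase profiling panel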
[20] = target: Cyclin-dependent kinase 9 (Homo sapiens, UniProt P50750);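 also: value from the CDK9 entry of a kinome-spanning kinase panel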
[21] = target: Tyrosine-protein kinase BTK (Homo sapiens, UniProt Q06187)
[22] = target: Serine/threonine-protein kinase pim-1 (Homo sapiens, UniProt P11309)
[23] = target: ALK tyrosine kinase receptor (Homo sapiens, UniProt Q9UM73);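 also: ALK tested as one member of a kinase panel screen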
[24] = target: Tyrosine-protein kinase JAK3 (Homo sapiens, UniProt P52333)
[25] = target: Ribosomal protein S6 kinase alpha-3 (Homo sapiens, UniProt P51812);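 also: measured within a kinome-wide profiling panel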
Aurora kinase A = Aurora kinase A (Homo sapiens, UniProt O14965);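 also: value from the Navigating the Kinome kinase panel profiling, panel entry STK6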
[26] = target: Vascular endothelial growth factor receptor 2 (Homo sapiens, UniProt P35968)
Sequence of Vascular endothelial growth factor receptor 2 (P35968 whole entry): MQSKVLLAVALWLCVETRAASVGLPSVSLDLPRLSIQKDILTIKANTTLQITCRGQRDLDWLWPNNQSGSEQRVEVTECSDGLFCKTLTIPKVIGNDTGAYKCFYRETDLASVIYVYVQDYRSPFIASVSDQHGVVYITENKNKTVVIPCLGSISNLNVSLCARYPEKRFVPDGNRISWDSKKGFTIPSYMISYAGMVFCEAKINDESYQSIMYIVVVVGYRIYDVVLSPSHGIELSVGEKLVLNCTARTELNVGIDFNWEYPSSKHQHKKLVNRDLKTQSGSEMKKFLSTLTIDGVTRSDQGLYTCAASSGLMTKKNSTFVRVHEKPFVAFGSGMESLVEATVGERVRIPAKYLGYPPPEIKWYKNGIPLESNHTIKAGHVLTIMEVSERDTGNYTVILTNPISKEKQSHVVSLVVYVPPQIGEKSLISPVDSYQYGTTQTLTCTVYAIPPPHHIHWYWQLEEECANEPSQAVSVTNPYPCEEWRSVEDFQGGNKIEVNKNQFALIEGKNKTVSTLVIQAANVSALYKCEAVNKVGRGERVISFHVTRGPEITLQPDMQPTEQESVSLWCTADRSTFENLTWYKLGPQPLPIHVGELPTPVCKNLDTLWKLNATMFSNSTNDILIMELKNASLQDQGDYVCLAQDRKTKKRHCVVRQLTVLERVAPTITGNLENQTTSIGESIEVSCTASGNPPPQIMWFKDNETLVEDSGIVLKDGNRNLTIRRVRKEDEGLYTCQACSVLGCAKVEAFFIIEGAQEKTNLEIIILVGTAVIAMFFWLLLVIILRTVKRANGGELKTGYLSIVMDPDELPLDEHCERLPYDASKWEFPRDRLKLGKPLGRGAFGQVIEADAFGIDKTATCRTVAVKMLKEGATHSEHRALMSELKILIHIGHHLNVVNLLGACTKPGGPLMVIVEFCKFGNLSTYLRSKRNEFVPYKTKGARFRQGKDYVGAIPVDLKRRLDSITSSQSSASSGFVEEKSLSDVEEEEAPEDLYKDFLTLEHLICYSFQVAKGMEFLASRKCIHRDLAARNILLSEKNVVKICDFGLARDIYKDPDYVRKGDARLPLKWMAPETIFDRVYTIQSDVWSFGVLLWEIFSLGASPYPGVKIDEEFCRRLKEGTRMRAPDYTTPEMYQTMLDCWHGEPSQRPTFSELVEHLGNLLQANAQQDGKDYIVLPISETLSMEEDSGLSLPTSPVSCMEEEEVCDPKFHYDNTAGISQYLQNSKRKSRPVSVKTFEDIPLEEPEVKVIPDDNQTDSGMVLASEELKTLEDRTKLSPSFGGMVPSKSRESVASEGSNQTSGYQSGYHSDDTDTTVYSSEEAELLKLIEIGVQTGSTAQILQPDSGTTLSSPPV

[27] = target: Mitogen-activated protein kinase 9 (Homo sapiens, UniProt P45984);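 also: value from a kinome panel profiling assay, MAPK9 panel entry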
[28] = target: Glycogen synthase kinase-3 beta (Homo sapiens, UniProt P49841);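 also: value comes from a broad kinome profiling panel, with GSK3B as the panel member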
[29] = target: BDNF/NT-3 growth factors receptor (Homo sapiens, UniProt Q16620);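 also: NTRK2 measured as one member of a broad kinome-wide kinase profiling panel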

Compound | Ki [1] | Ki [2] | Ki [3] | Ki [4] | Ki [5] | Ki [6] | Ki [7] | Ki [8] | Ki [9] | Ki [10] | Ki [11] | Ki [12] | Ki [13] | Ki [14] | Ki [15] | Ki (Aurora kinase B) | Ki [16] | Ki [17] | Ki [18] | Ki [19] | other results
Cc1n[nH]c2ccc(-c3cncc(OCC(N)Cc4ccc(Cl)c(Cl)c4)c3)cc12 (configuration not stated) | > 5.01 µM (inactive) | 0.0794 µM (active) | > 2.51 µM (inactive) | 0.02 µM (active) | 2.51 µM (active) | 0.0316 µM (active) | 0.0631 µM (active) | 0.00398 µM (active) | > 2 µM (inactive) | > 0.398 µM (inactive) | 0.126 µM (active) | > 0.794 µM (inactive) | 0.0126 µM (active) | > 2.51 µM (inactive) | > 10 µM (inactive) | 0.251 µM (active) | 0.1 µM (active) | 0.631 µM (active) | > 2.51 µM (inactive) | 0.0126 µM (active) | Ki [20]: 0.2 µM (active); Ki [21]: > 1.26 µM (inactive); Ki [22]: 0.00631 µM (active); Ki [23]: 0.794 µM (active); Ki [24]: 1.26 µM (active); Ki [25]: 0.0158 µM (active); Ki (Aurora kinase A): 1 µM (active); Ki [26]: > 7.94 µM (inactive); Ki [27]: 3.16 µM (active); Ki [28]: 0.0316 µM (active); Ki [29]: > 5.01 µM (inactive)
[2H]C([2H])([2H])Oc1cccc(C(C)NC(=O)c2sc(-c3ccncc3)nc2C)c1 (configuration not stated) | > 3.98 µM (inactive) | > 5.01 µM (inactive) | > 2.51 µM (inactive) | > 3.98 µM (inactive) | > 5.01 µM (inactive) | > 3.16 µM (inactive) | > 2.51 µM (inactive) | > 3.98 µM (inactive) | > 2.51 µM (inactive) | > 3.98 µM (inactive) | > 5.01 µM (inactive) | > 6.31 µM (inactive) | > 3.98 µM (inactive) | > 6.31 µM (inactive) | > 3.16 µM (inactive) | > 3.98 µM (inactive) | > 3.16 µM (inactive) | > 6.31 µM (inactive) | > 3.16 µM (inactive) | > 3.16 µM (inactive) | Ki [20]: > 1.58 µM (inactive); Ki [21]: > 6.31 µM (inactive); Ki [22]: > 6.31 µM (inactive); Ki [23]: > 6.31 µM (inactive); Ki [24]: > 5.01 µM (inactive); Ki [25]: > 3.98 µM (inactive); Ki (Aurora kinase A): > 1.58 µM (inactive); Ki [26]: > 2.51 µM (inactive); Ki [27]: > 3.98 µM (inactive); Ki [28]: 2 µM (active); Ki [29]: > 3.98 µM (inactive)
